US20040266826A1, “Thiophenylthiopyrane dioxides as mmp or tnf-alpha inhibitors” (priority 2001, published 2004)

Biological target: T1, human MMP-9 (Homo sapiens, UniProt P14780)
T1 construct: purchased Yagai, Japan
Experiment: Inhibitory activity of human MMP-9 (commercial kit, degradation of FITC-labeled bovine type IV collagen)
Type: biochemical
Conditions: incubation 4 hours at 42° C.
Protocol: Inhibitory Activity of Human MMP-9
The inhibitory activity of test compounds against human MMP-9 were measured by using commercial kits (Yagai, Japan). Gelatinolytic activity was determined by monitoring the degradation of FITC-labeled bovine type IV collagen after incubation for 4 hours at 42° C. The amount of degraded collagen was estimated by measuring the fluorescence intensity at 495 nm (excitation) and 520 nm (emission).
Inhibitory activity of human MMP-9 as mentioned above.

T1 sequence (P14780 94-707): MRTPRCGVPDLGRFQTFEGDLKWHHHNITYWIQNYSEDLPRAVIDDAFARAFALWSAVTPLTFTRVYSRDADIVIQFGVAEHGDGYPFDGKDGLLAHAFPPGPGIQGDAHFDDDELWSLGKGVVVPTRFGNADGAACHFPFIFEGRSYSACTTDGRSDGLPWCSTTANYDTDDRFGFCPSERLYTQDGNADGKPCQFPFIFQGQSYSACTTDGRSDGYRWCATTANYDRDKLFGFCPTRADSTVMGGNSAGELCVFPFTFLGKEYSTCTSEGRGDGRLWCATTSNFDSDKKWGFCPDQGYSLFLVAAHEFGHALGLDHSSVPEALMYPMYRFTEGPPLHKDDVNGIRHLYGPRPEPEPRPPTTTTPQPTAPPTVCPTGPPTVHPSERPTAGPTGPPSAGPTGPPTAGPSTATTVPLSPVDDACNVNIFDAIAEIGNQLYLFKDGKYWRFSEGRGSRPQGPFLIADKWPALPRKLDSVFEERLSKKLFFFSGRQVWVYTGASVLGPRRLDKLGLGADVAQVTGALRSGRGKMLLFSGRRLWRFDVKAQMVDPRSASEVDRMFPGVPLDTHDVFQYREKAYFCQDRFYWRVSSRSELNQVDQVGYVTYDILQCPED

SMILES | IC50 [nM]
O=C(O)C[C@]1(c2ccc(-c3ccc(-c4ccsc4)cc3)s2)CCCCS1(=O)=O [Example 35, ((2S)-1,1-Dioxo-2-{5-[4-(thiophen-3-yl)phenyl]-thiophen-2-yl}-3,4,5,6-tetrahydro-2H-thiopyran-2-yl)acetic acid] | 2.77
COc1ccc2sc(-c3ccc([C@@]4(CC(=O)O)CCCCS4(=O)=O)s3)cc2c1 [Example 51, {(2S)-2-[5-(5-Methoxybenzothiophen-2-yl)thiophen-2-yl]-1,1-dioxo-3,4,5,6-tetrahydro-2H-thiopyran-2-yl} acetic acid] | 4.56
O=C(O)C[C@]1(c2ccc(-c3ccc(-c4cnco4)cc3)s2)CCCCS1(=O)=O [Example 3, [(2S)-2-[5-[4-(5-Oxazolyl)phenyl]thiophen-2-yl]-1,1-dioxo-3,4,5,6-tetrahydro-2H-thiopyran-2-yl]acetic acid] | 16

Now from value to molecule:

IC50 [nM] | SMILES
1.37 | O=C(O)C[C@]1(c2ccc(-c3cc4ccc(F)cc4s3)s2)CCCCS1(=O)=O [Example 97, {(2S)-1,1-Dioxo-2-[5-(6-fluorobenzothiophen-2-yl)thiophen-2-yl]-3,4,5,6-tetrahydro-2H-thiopyran-2-yl}acetic acid]
7.17 | O=C(O)C[C@]1(c2ccc(C#Cc3ccc(Cl)cc3)s2)CCCCS1(=O)=O [Example 179, ((2S)-2-{5-[(4-Chlorophenyl)ethynyl]thiophen-2-yl)-1,1-dioxo-3,4,5,6-tetrahydro-2H-thiopyran-2-yl)acetic acid]

Test system: not given
Experiment: not given
Conditions: not given

SMILES | melting point [°C]
Cc1ccc2sc(-c3ccc([C@@]4(CC(=O)O)CCCCS4(=O)=O)s3)cc2c1 [Example 50, {(2S)-2-[5-(5-Methylbenzothiophen-2-yl)thiophen-2-yl]-1,1-dioxo-3,4,5,6-tetrahydro-2H-thiopyran-2-yl} acetic acid] | 209 to 213
COc1ccc2cc(-c3ccc([C@@]4(CC(=O)O)CCCCS4(=O)=O)s3)sc2c1 [Example 52, {(2S)-2-[5-(6-Methoxybenzothiophen-2-yl)thiophen-2-yl]-1,1-dioxo-3,4,5,6-tetrahydro-2H-thiopyran-2-yl} acetic acid] | 232 to 235
CCOc1ccc2cc(-c3ccc([C@@]4(CC(=O)O)CCCCS4(=O)=O)s3)ccc2c1 [Example 48, {(2S)-1,1-Dioxo-2-[5-(6-ethoxynaphthalen-2-yl)thiophen-2-yl]-3,4,5,6-tetrahydro-2H-thiopyran-2-yl} acetic acid] | 219 to 222
O=C(O)C[C@]1(c2ccc(-c3cc4cc(F)ccc4s3)s2)CCCCS1(=O)=O [Example 53, {(2S)-2-[5-(5-Fluorobenzothiophen-2-yl)thiophen-2-yl]-1,1-dioxo-3,4,5,6-tetrahydro-2H-thiopyran-2-yl} acetic acid] | 219 to 221
COc1ccc2sc(-c3ccc([C@@]4(CC(=O)O)CCCCS4(=O)=O)s3)cc2c1 [Example 51, {(2S)-2-[5-(5-Methoxybenzothiophen-2-yl)thiophen-2-yl]-1,1-dioxo-3,4,5,6-tetrahydro-2H-thiopyran-2-yl} acetic acid] | 215 to 218
O=C(O)C[C@]1(c2ccc(-c3ccc4cc(-c5cnco5)ccc4c3)s2)CCCCS1(=O)=O [Example 43, ((2S)-1,1-Dioxo-2-{5-[6-(oxazol-5-yl)naphthalen-2-yl]thiophen-2-yl}-3,4,5,6-tetrahydro-2H-thiopyran-2-yl)acetic acid] | 260 to 265

Next, values leading:

melting point [°C] | SMILES
171 to 172 | CCCC#Cc1ccc([C@@]2(CC(=O)O)CCCCS2(=O)=O)s1 [Example 178, ((2S)-1,1-Dioxo-2-(5-[1-pentynyl]thiophen-2-yl}-3,4,5,6-tetrahydro-2H-thiopyran-2-yl)acetic acid]
172 to 173 | Cc1ccc(C#Cc2ccc([C@@]3(CC(=O)O)CCCCS3(=O)=O)s2)cc1 [Example 180, ((2S)-1,1-Dioxo-2-{5-[(4-methylphenyl)ethynyl]-thiophen-2-yl}-3,4,5,6-tetrahydro-2H-thiopyran-2-yl)acetic acid]
184 to 185 | CC(C)Oc1ccc(-c2ccc([C@@]3(CC(=O)O)CCCCS3(=O)=O)s2)cc1 [Example 96, ((2S)-1,1-Dioxo-2-{5-[4-(1-methylethoxy)phenyl]-thiophen-2-yl}-3,4,5,6-tetrahydro-2H-thiopyran-2-yl) acetic acid]
203 to 204 | O=C(O)C[C@]1(c2ccc(C#Cc3ccc(Cl)cc3)s2)CCCCS1(=O)=O [Example 179, ((2S)-2-{5-[(4-Chlorophenyl)ethynyl]thiophen-2-yl)-1,1-dioxo-3,4,5,6-tetrahydro-2H-thiopyran-2-yl)acetic acid]
230 to 232 | CNC(=O)c1ccc2cc(-c3ccc([C@@]4(CC(=O)O)CCCCS4(=O)=O)s3)ccc2c1 [Example 54, [(2S)-1,1-Dioxo-2-(5-{6-[methylcarbamoyl)naphthalen-2-yl}thiophen-2-yl)-3,4,5,6-tetrahydro-2H-thiopyran-2-yl]acetic acid]
